# How the values were obtained:
# [1] = target: T1, human recombinant HDAC1 (Homo sapiens, UniProt Q13547); experiment: HDAC1 enzyme activity inhibition assay (in vitro, fluorimetric); assay type: biochemical; conditions: human recombinant HDAC1, fluorimetric kit, 30° C. 60 minutes
# T1 construct: purchased Enzo Life Science BML-SE456
# In short: (§1)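 Human recombinant enzyme (0.3 μg for HDAC1) reacted with 10 μM Fluor de Lys-SIRT1 substrate and 5-fold compound dilutions at 30 °C for 60 min, then developer for 30 min. Fluorescence read at Ex 360/Em 460; IC50 calculated. HDAC6 run by the same protocol.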
# [2] = target: T2, human recombinant HDAC6 (Homo sapiens, UniProt Q9UBN7); experiment: HDAC6 enzyme activity inhibition assay (in vitro, fluorimetric); assay type: biochemical; conditions: for HDAC6 selectivity (fold): HDAC6 selectivity over HDAC1; for IC50: human recombinant HDAC6, fluorimetric kit, same protocol as HDAC1
# T2 construct: purchased Calbiochem 382180
# T2 sequence (Q9UBN7 1-1215): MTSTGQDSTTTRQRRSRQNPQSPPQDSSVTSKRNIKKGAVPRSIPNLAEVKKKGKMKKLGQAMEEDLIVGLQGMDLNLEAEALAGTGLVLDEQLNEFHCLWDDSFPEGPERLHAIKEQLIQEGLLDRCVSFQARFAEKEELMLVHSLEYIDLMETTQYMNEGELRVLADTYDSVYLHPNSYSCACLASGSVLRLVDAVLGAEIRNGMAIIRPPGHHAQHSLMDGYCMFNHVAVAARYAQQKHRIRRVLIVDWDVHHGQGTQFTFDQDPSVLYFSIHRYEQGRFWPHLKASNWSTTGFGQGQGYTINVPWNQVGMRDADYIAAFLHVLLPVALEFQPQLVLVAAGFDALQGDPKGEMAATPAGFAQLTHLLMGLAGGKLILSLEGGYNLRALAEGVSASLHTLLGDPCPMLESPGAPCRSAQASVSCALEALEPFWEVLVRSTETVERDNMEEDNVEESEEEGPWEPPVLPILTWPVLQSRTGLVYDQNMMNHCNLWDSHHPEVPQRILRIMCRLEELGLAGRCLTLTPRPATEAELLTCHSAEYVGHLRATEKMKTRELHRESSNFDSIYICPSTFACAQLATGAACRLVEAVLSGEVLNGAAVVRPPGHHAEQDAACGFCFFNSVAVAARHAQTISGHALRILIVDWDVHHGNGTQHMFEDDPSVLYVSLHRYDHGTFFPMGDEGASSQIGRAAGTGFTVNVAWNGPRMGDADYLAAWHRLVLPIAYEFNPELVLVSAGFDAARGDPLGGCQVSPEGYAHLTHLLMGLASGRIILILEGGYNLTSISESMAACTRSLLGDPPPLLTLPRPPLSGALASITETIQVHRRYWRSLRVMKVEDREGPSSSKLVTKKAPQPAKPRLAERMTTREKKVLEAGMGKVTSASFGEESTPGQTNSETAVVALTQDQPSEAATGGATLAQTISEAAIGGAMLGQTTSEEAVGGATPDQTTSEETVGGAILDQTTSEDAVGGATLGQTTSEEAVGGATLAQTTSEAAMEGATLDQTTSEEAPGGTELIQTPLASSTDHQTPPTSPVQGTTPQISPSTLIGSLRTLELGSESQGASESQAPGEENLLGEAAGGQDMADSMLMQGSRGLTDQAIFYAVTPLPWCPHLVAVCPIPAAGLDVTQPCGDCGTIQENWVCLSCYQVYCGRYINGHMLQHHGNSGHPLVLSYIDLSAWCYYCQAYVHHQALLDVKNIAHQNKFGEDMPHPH
# In short: as §1
# T1 sequence (Q13547 whole entry): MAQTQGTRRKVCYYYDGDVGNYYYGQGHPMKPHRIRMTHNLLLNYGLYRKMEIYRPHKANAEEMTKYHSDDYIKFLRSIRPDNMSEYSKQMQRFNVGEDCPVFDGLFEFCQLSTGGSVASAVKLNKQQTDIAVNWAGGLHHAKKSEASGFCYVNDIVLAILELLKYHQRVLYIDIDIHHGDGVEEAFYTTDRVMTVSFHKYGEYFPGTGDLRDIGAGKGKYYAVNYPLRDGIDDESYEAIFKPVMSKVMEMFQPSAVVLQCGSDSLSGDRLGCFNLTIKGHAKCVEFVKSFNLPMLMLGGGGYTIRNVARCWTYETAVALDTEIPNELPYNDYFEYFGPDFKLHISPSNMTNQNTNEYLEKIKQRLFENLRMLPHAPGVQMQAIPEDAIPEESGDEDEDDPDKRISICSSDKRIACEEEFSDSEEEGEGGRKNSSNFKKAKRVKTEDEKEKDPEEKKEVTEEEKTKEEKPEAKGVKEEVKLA
SMILES,IC50 [1],HDAC6 selectivity (fold) [2],IC50 [2]
"C[C@@H]1CN(Cc2ccc(C(=O)NO)cc2)C[C@H](C)N1Cc1ccco1 [Compound 145, 4-(((3R,5S)-4-(furan-2-ylmethyl)-3,5-dimethylpiperazin-1-yl)methyl)-N-hydroxybenzamide]",17100 nM,519 fold,33 nM
"CC(CN(C)Cc1ccccc1)NCc1cccc(CN2[C@H](C)CN(Cc3ccc(C(=O)NO)cc3)C[C@@H]2C)c1 (stereo partly drawn) [Compound 456, 4-(((3R,5S)-4-(3-(((1-(benzyl(methyl)amino)propan-2-yl)amino)methyl)benzyl)-3,5-dimethylpiperazin-1-yl)methyl)-N-hydroxybenzamide]",11100 nM,77 fold,144 nM
"CCN1[C@H](C)CN(Cc2ccc(C(=O)NO)cc2)C[C@@H]1C [Compound 147, 4-(((3R,5S)-4-ethyl-3,5-dimethylpiperazin-1-yl)methyl)-N-hydroxybenzamide]",> 10000 nM,>90 fold,111 nM
"C[C@@H]1CN(S(=O)(=O)c2ccc(C(=O)NO)cc2)C[C@H](C)N1Cc1ccccc1 [Compound 818, 4-(((3R,5S)-4-benzyl-3,5-dimethylpiperazin-1-yl)sulfonyl)-N-hydroxybenzamide]",> 10000 nM,>11 fold,870 nM
"C[C@@H]1CN(Cc2ccc3cc(C(=O)NO)[nH]c3c2)C[C@H](C)N1Cc1ccccc1 [Compound 573, 6-(((3R,5S)-4-benzyl-3,5-dimethylpiperazin-1-yl)methyl)-N-hydroxy-1H-indole-2-carboxamide]",> 10000 nM,36 fold,1440 nM
"C[C@@H]1CN(Cc2ccc(C(=O)NO)c(O)c2)C[C@H](C)N1Cc1cccc(CN2CCOCC2)c1 [Compound 653, 4-(((3R,5S)-3,5-dimethyl-4-(3-(morpholinomethyl)benzyl)piperazin-1-yl)methyl)-N,2-dihydroxybenzamide]",> 10000 nM,>23 fold,420 nM
"C[C@@H]1CN(Cc2ccc(C(=O)NO)cc2)C[C@H](C)N1Cc1cccc(CN2CCN(S(C)(=O)=O)CC2)c1 [Compound 452, 4-(((3R,5S)-3,5-dimethyl-4-(3-((4-(methylsulfonyl)piperazin-1-yl)methyl)benzyl)piperazin-1-yl)methyl)-N-hydroxybenzamide]",9100 nM,140 fold,65 nM
"C[C@@H]1CN(Cc2ccc(C(=O)NO)cc2)C[C@H](C)N1C(=O)Cc1cccc(Cl)c1 [Compound 224, 4-(((3R,5S)-4-(2-(3-chlorophenyl)acetyl)-3,5-dimethylpiperazin-1-yl)methyl)-N-hydroxybenzamide]",1700 nM,14 fold,120 nM
"C[C@@H]1CN(Cc2ccc(C(=O)NO)cc2)C[C@H](C)N1Cc1ccccc1-c1ccncc1 [Compound 329, 4-(((3R,5S)-3,5-dimethyl-4-(2-(pyridin-4-yl)benzyl)piperazin-1-yl)methyl)-N-hydroxybenzamide]",14600 nM,280 fold,52 nM

# Further compounds by falling IC50 [1], results first:
IC50 [1],HDAC6 selectivity (fold) [2],IC50 [2],SMILES
6800 nM,<7 fold,> 1000 nM,"C[C@@H]1CN(C(=O)c2cccc(C3=CCC(C)(C)CC3)c2)C[C@H](C)N1Cc1ccc(C(=O)NO)cc1 [Compound 263, 4-(((2S,6R)-4-(4′,4′-dimethyl-2′,3′,4′,5′-tetrahydro-[1,1′-biphenyl]-3-carbonyl)-2,6-dimethylpiperazin-1-yl)methyl)-N-hydroxybenzamide]"
5500 nM,304 fold,18 nM,"C[C@@H]1CN(Cc2ccc(C(=O)NO)cc2)C[C@H](C)N1C(=O)c1ccccc1Cl [Compound 120, 4-(((3R,5S)-4-(2-chlorobenzoyl)-3,5-dimethylpiperazin-1-yl)methyl)-N-hydroxybenzamide]"
4700 nM,18 fold,256 nM,"C[C@@H]1CN(Cc2ccc(C(=O)NO)cc2)C[C@H](C)N1C(=O)c1ccc(CN2CCN(S(C)(=O)=O)CC2)cc1 [Compound 463, 4-(((3R,5S)-3,5-dimethyl-4-(4-((4-(methylsulfonyl)piperazin-1-yl)methyl)benzoyl)piperazin-1-yl)methyl)-N-hydroxybenzamide]"
4400 nM,20 fold,219 nM,"C[C@@H]1CN(Cc2ccc(C(=O)NO)cc2)C[C@H](C)N1C(=O)c1ccc(CN2CC[C@@H](F)C2)cc1 [Compound 460, 4-(((3R,5S)-4-(4-(((R)-3-fluoropyrrolidin-1-yl)methyl)benzoyl)-3,5-dimethylpiperazin-1-yl)methyl)-N-hydroxybenzamide]"
4300 nM,17 fold,248 nM,"C[C@@H]1CN(Cc2ccc(C(=O)NO)cc2)C[C@H](C)N1C(=O)c1ccncc1 [Compound 405, N-hydroxy-4-(((3R,5S)-4-isonicotinoyl-3,5-dimethylpiperazin-1-yl)methyl)benzamide]"
3900 nM,4 fold,810 nM,"C[C@@H]1CN(Cc2cc3cc(C(=O)NO)ccc3o2)C[C@H](C)N1Cc1ccccc1 [Compound 574, 2-(((3R,5S)-4-benzyl-3,5-dimethylpiperazin-1-yl)methyl)-N-hydroxybenzofuran-5-carboxamide]"
3800 nM,48 fold,79 nM,"Cc1ccc(C(=O)N2[C@H](C)CN(Cc3ccc(C(=O)NO)cc3)C[C@@H]2C)cc1 [Compound 290, 4-(((3R,5S)-3,5-dimethyl-4-(4-methylbenzoyl)piperazin-1-yl)methyl)-N-hydroxybenzamide]"
3400 nM,35 fold,97 nM,"C[C@@H]1CN(Cc2ccc(C(=O)NO)cc2)C[C@H](C)N1C(=O)c1cccc(C2=CCOCC2)c1 [Compound 244, 4-(((3R,5S)-4-(3-(3,6-dihydro-2H-pyran-4-yl)benzoyl)-3,5-dimethylpiperazin-1-yl)methyl)-N-hydroxybenzamide]"
3000 nM,40 fold,74 nM,"C[C@@H]1CN(Cc2ccc(C(=O)NO)cc2)C[C@H](C)N1C(=O)c1cccc(-c2ccoc2)c1 [Compound 243, 4-(((3R,5S)-4-(3-(furan-3-yl)benzoyl)-3,5-dimethylpiperazin-1-yl)methyl)-N-hydroxybenzamide]"
1400 nM,2 fold,560 nM,"COc1ccc(NC(=O)N2C[C@@H](C)N(Cc3ccc(C(=O)NO)cc3)[C@@H](C)C2)cc1 [Compound 165, (3R,5S)-4-(4-(hydroxycarbamoyl)benzyl)-N-(4-methoxyphenyl)-3,5-dimethylpiperazine-1-carboxamide]"
1100 nM,2 fold,497 nM,"COc1ccccc1NC(=O)N1C[C@@H](C)N(Cc2ccc(C(=O)NO)cc2)[C@@H](C)C1 [Compound 163, (3R,5S)-4-(4-(hydroxycarbamoyl)benzyl)-N-(2-methoxyphenyl)-3,5-dimethylpiperazine-1-carboxamide]"
1100 nM,6 fold,175 nM,"C[C@@H]1CN(Cc2ccc(/C=C/C(=O)NO)cc2)C[C@H](C)N1C(=O)c1ccco1 [Compound 322, (E)-3-(4-(((3R,5S)-4-(furan-2-carbonyl)-3,5-dimethylpiperazin-1-yl)methyl)phenyl)-N-hydroxyacrylamide]"
900 nM,6 fold,142 nM,"CCN(CC)Cc1cccc(CN2C[C@@H](C)N(Cc3ccc(/C=C/C(=O)NO)cc3)[C@@H](C)C2)c1 [Compound 476, (E)-3-(4-(((2S,6R)-4-(3-((diethylamino)methyl)benzyl)-2,6-dimethylpiperazin-1-yl)methyl)phenyl)-N-hydroxyacrylamide]"
